Reference: the supplement of paper PMC10307832

Assays:
Test in all cases: relative viability (nuclei count vs DMSO), 5 days (fraction); higher = more cells survive
COR-L 105 = tested on: COR-L 105
How it was run: (§1)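 One day after seeding in 1536-well plates, lung cancer cell lines were dosed by pin tool. Dosing was either single-drug or a fixed anchor-drug dose plus five library-drug doses (not always all listed) in √10 steps. After 5 days, nuclei were stained in one fix-and-stain step and counted on 4× images, and relative viability is the nuclei count of treated wells over that of vehicle wells, given as the median of duplicate plates.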

COR-L23 = tested on: COR-L23
How it was run: as §1

EKVX = tested on: EKVX
How it was run: as §1

HARA = tested on: HARA
How it was run: as §1

HOP-62 = tested on: HOP-62
How it was run: as §1

NCI-H1355 = tested on: NCI-H1355
How it was run: as §1

NCI-H1395 = tested on: NCI-H1395
How it was run: as §1

NCI-H1734 = tested on: NCI-H1734
How it was run: as §1

NCI-H1755 = tested on: NCI-H1755
How it was run: as §1

NCI-H1793 = tested on: NCI-H1793
How it was run: as §1

NCI-H1993 = tested on: NCI-H1993
How it was run: as §1

NCI-H2009 = tested on: NCI-H2009
How it was run: as §1

NCI-H2170 = tested on: NCI-H2170
How it was run: as §1

NCI-H2342 = tested on: NCI-H2342
How it was run: as §1

NCI-H2347 = tested on: NCI-H2347
How it was run: as §1

NCI-H322M = tested on: NCI-H322M
How it was run: as §1

NCI-H358 = tested on: NCI-H358
How it was run: as §1

NCI-H522 = tested on: NCI-H522
How it was run: as §1

NCI-H647 = tested on: NCI-H647
How it was run: as §1

NCI-H838 = tested on: NCI-H838
How it was run: as §1

PC-14 = tested on: PC-14
How it was run: as §1

SK-MES-1 = tested on: SK-MES-1
How it was run: as §1

UMC-11 = tested on: UMC-11
How it was run: as §1

In the case of `COc1cc(N2CCC(C(N)=O)CC2)ccc1Nc1nc(N)c(Cl)c(Nc2ccccc2S(=O)(=O)C(C)C)n1` [HG-5-88-01] + Nc1ncn([C@H]2C[C@H](O)[C@@H](CO)O2)c(=O)n1 [Decitabine] (partner 2 µM), the relative viability (COR-L 105; first compound 0.04 µM) is reported as 0.569, the relative viability (COR-L 105; first compound 0.1265 µM) is reported as 0.706 and the relative viability (COR-L 105; first compound 0.4 µM) is reported as 0.628. It also gave a relative viability (COR-L 105; first compound 1.265 µM) of 0.582, a relative viability (COR-L 105; first compound 4 µM) of 0.577 and a relative viability (COR-L23; first compound 0.04 µM) of 0.405. The relative viability (COR-L23; first compound 0.1265 µM) was 0.531, the relative viability (COR-L23; first compound 0.4 µM) was 0.543 and the relative viability (COR-L23; first compound 1.265 µM) was 0.379. The relative viability (COR-L23; first compound 4 µM) was 0.391, the relative viability (EKVX; first compound 0.04 µM) was 0.392 and the relative viability (EKVX; first compound 0.1265 µM) was 0.332. It also gave a relative viability (EKVX; first compound 0.4 µM) of 0.389, a relative viability (EKVX; first compound 4 µM) of 0.345 and a relative viability (HARA; first compound 0.04 µM) of 0.581. It also gave a relative viability (HARA; first compound 0.1265 µM) of 0.504, a relative viability (HARA; first compound 0.4 µM) of 0.663 and a relative viability (HARA; first compound 1.265 µM) of 0.451. For the same compound, the relative viability (HARA; first compound 4 µM) was 0.494, the relative viability (HOP-62; first compound 0.04 µM) was 0.209 and the relative viability (HOP-62; first compound 0.1265 µM) was 0.226. It also gave a relative viability (HOP-62; first compound 0.4 µM) of 0.232, a relative viability (HOP-62; first compound 1.265 µM) of 0.252 and a relative viability (HOP-62; first compound 4 µM) of 0.28. It also gave a relative viability (NCI-H1355; first compound 0.04 µM) of 0.337, a relative viability (NCI-H1355; first compound 0.1265 µM) of 0.382 and a relative viability (NCI-H1355; first compound 0.4 µM) of 0.38. The relative viability (NCI-H1355; first compound 1.265 µM) was 0.334, the relative viability (NCI-H1355; first compound 4 µM) was 0.331 and the relative viability (NCI-H1395; first compound 0.04 µM) was 0.765. It also gave a relative viability (NCI-H1395; first compound 0.1265 µM) of 0.712, a relative viability (NCI-H1395; first compound 0.4 µM) of 0.789 and a relative viability (NCI-H1395; first compound 1.265 µM) of 0.682. The relative viability (NCI-H1395; first compound 4 µM) was 0.751, the relative viability (NCI-H1734; first compound 0.04 µM) was 0.526 and the relative viability (NCI-H1734; first compound 0.1265 µM) was 0.564. For the same compound, the relative viability (NCI-H1734; first compound 0.4 µM) was 0.511, the relative viability (NCI-H1734; first compound 1.265 µM) was 0.462 and the relative viability (NCI-H1734; first compound 4 µM) was 0.532. The relative viability (NCI-H1755; first compound 0.04 µM) was 0.739, the relative viability (NCI-H1755; first compound 0.1265 µM) was 0.732 and the relative viability (NCI-H1755; first compound 0.4 µM) was 0.829. It also gave a relative viability (NCI-H1755; first compound 1.265 µM) of 0.688, a relative viability (NCI-H1755; first compound 4 µM) of 0.836 and a relative viability (NCI-H1793; first compound 0.04 µM) of 0.554. It also gave a relative viability (NCI-H1793; first compound 0.1265 µM) of 0.518, a relative viability (NCI-H1793; first compound 0.4 µM) of 0.701 and a relative viability (NCI-H1793; first compound 1.265 µM) of 0.408. The relative viability (NCI-H1793; first compound 4 µM) was 0.499, the relative viability (NCI-H1993; first compound 0.04 µM) was 0.583 and the relative viability (NCI-H1993; first compound 0.1265 µM) was 0.709. It also gave a relative viability (NCI-H1993; first compound 0.4 µM) of 0.586, a relative viability (NCI-H1993; first compound 4 µM) of 0.545 and a relative viability (NCI-H2009; first compound 0.04 µM) of 0.355. It also gave a relative viability (NCI-H2009; first compound 0.1265 µM) of 0.384, a relative viability (NCI-H2009; first compound 0.4 µM) of 0.338 and a relative viability (NCI-H2009; first compound 1.265 µM) of 0.314. The relative viability (NCI-H2009; first compound 4 µM) was 0.377, the relative viability (NCI-H2170; first compound 0.04 µM) was 0.461 and the relative viability (NCI-H2170; first compound 0.1265 µM) was 0.479. It also gave a relative viability (NCI-H2170; first compound 0.4 µM) of 0.509, a relative viability (NCI-H2170; first compound 1.265 µM) of 0.439 and a relative viability (NCI-H2170; first compound 4 µM) of 0.486. For the same compound, the relative viability (NCI-H2342; first compound 0.04 µM) was 0.751, the relative viability (NCI-H2342; first compound 0.1265 µM) was 0.808 and the relative viability (NCI-H2342; first compound 0.4 µM) was 0.808. The relative viability (NCI-H2342; first compound 4 µM) was 0.801, the relative viability (NCI-H2347; first compound 0.04 µM) was 0.632 and the relative viability (NCI-H2347; first compound 0.1265 µM) was 0.637. For the same compound, the relative viability (NCI-H2347; first compound 0.4 µM) was 0.729, the relative viability (NCI-H2347; first compound 1.265 µM) was 0.672 and the relative viability (NCI-H2347; first compound 4 µM) was 0.645. The relative viability (NCI-H322M; first compound 0.04 µM) was 0.693, the relative viability (NCI-H322M; first compound 0.1265 µM) was 0.68 and the relative viability (NCI-H322M; first compound 0.4 µM) was 0.781. The relative viability (NCI-H322M; first compound 1.265 µM) was 0.483, the relative viability (NCI-H322M; first compound 4 µM) was 0.706 and the relative viability (NCI-H358; first compound 0.04 µM) was 0.208. The relative viability (NCI-H358; first compound 0.1265 µM) was 0.229, the relative viability (NCI-H358; first compound 0.4 µM) was 0.285 and the relative viability (NCI-H358; first compound 1.265 µM) was 0.192. It also gave a relative viability (NCI-H358; first compound 4 µM) of 0.125, a relative viability (NCI-H522; first compound 0.04 µM) of 0.702 and a relative viability (NCI-H522; first compound 0.1265 µM) of 0.773. It also gave a relative viability (NCI-H522; first compound 0.4 µM) of 0.69, a relative viability (NCI-H522; first compound 1.265 µM) of 0.687 and a relative viability (NCI-H522; first compound 4 µM) of 0.649. The relative viability (NCI-H647; first compound 0.04 µM) was 0.375, the relative viability (NCI-H647; first compound 0.1265 µM) was 0.494 and the relative viability (NCI-H647; first compound 1.265 µM) was 0.529. It also gave a relative viability (NCI-H647; first compound 4 µM) of 0.679, a relative viability (NCI-H838; first compound 0.04 µM) of 0.46 and a relative viability (NCI-H838; first compound 0.1265 µM) of 0.467. For the same compound, the relative viability (NCI-H838; first compound 0.4 µM) was 0.491, the relative viability (NCI-H838; first compound 1.265 µM) was 0.407 and the relative viability (NCI-H838; first compound 4 µM) was 0.341. The relative viability (PC-14; first compound 0.04 µM) was 0.215, the relative viability (PC-14; first compound 0.1265 µM) was 0.231 and the relative viability (PC-14; first compound 0.4 µM) was 0.235. For the same compound, the relative viability (PC-14; first compound 1.265 µM) was 0.206, the relative viability (PC-14; first compound 4 µM) was 0.0628 and the relative viability (SK-MES-1; first compound 0.04 µM) was 0.408. For the same compound, the relative viability (SK-MES-1; first compound 0.1265 µM) was 0.368, the relative viability (SK-MES-1; first compound 0.4 µM) was 0.407 and the relative viability (SK-MES-1; first compound 1.265 µM) was 0.459. It also gave a relative viability (SK-MES-1; first compound 4 µM) of 0.34, a relative viability (UMC-11; first compound 0.04 µM) of 0.638 and a relative viability (UMC-11; first compound 0.1265 µM) of 0.706. The relative viability (UMC-11; first compound 0.4 µM) was 0.604, the relative viability (UMC-11; first compound 1.265 µM) was 0.526 and the relative viability (UMC-11; first compound 4 µM) was 0.672.
